Results reported in US12371404B2, “Fused bicyclic alkylene linked imidodicarbonimidic diamides, methods for synthesis, and uses in therapy” (NovaTarg, Inc., priority 2016, dated 2025).
pIC50: −log10 of the molar value. Where a name gives a salt, the structure may show the parent alone. Read-outs that look alike come from different tables or passages of the source.

Assays:
human OCT2 = target: T1, human OCT2 (Homo sapiens, UniProt O15244); experiment: Oxygen consumption rate (OCR) assay, HEK293 cells transfected with OCT2; details: HEK293 cells stably transfected with human OCT2; MitoXpress Xtra, 2 hours
T1 sequence (O15244 1-555): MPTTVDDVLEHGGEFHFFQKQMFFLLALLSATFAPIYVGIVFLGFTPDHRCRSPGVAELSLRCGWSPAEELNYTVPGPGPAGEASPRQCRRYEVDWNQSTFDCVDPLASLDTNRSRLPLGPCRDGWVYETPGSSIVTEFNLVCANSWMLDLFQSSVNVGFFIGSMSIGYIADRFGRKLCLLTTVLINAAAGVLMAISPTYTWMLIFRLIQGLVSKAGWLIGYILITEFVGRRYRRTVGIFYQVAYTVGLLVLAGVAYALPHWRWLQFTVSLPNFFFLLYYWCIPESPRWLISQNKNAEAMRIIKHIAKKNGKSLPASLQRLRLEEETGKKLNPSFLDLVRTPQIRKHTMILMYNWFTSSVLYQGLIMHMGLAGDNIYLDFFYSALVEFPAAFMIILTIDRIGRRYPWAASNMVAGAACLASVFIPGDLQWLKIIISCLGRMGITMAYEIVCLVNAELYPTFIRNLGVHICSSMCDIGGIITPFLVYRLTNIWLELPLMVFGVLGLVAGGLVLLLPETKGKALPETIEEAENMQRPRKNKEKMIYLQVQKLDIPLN
Source text: (§1) Diabetologia 2011, 54 (12): 3101-3110, each incorporated by reference with regard to such testing. The compounds of the present invention are similarly tested in an oxygen consumption rate (OCR) assay to evaluate the functional activity of test compounds in cells.
(§2) In brief, the assay uses HEK293 cells stably transfected with the human OCT1, OCT2, OCT3, PMAT, or MATE1 transporters to determine a compound's relative transporter selectivity and its effect on the rate of oxygen consumption relative to control (Neo) cells. The MitoXpress Xtra oxygen-sensitive fluorophore is used to monitor oxygen consumption rates in the presence and absence of compound treatments. The analogs were tested at eight (8) different concentrations in triplicate to determine a relative IC50 value.
(§3) A summary description of the protocol is as follows:
HEK293 cells transformed with human organic cation transporters were plated in collagen coated, 96-well black-walled microclear plates (Greiner-Bio 1, #655956) at 60,000 cells per well in growth medium (DMEM (LG), 10% FBS, 400 μg/ml G418). Cells were incubated overnight to allow attachment. The outer columns (1 and 12) are not seeded with cells, as controls. The next day, plating medium was removed and replaced with 150 μL of assay medium (DMEM/F12 (PRF), 5% FBS, antibiotics) containing compound dilutions. A 3-fold serial dilution was prepared in the assay medium and transferred to the empty wells. The outer columns and column 11 received 150 μL of assay medium only. […] Dual read time-resolved fluorescence (BMG FluoStar Galaxy reader) was measured over 2 hours with measurements taken every 2 minutes. […] Background TRF values from A1-D1 were subtracted from all readings. A ratiometric analysis was performed to determine changes in the Lifetime fluorescence signal:Lifetime (μs) [T]=(D2−D1)/ln(W1/W2), where D is delay; W is fluorescence window value at each time point. Lifetime slopes were calculated using each Lifetime measurement over time. IC50 values were determined by plotting lifetime slope values vs. compound concentration.

control (Neo) cells = experiment: Oxygen consumption rate (OCR) assay, control (Neo) HEK293 cells; assay type: cell-based; details: Homo sapiens, read-out: Oxygen Consumption Rate (OCR) IC50, Neo
human MATE1 = target: T2, human MATE1 (Homo sapiens, UniProt Q96FL8); experiment: Oxygen consumption rate (OCR) assay, HEK293 cells transfected with MATE1
T2 sequence (Q96FL8 1-570): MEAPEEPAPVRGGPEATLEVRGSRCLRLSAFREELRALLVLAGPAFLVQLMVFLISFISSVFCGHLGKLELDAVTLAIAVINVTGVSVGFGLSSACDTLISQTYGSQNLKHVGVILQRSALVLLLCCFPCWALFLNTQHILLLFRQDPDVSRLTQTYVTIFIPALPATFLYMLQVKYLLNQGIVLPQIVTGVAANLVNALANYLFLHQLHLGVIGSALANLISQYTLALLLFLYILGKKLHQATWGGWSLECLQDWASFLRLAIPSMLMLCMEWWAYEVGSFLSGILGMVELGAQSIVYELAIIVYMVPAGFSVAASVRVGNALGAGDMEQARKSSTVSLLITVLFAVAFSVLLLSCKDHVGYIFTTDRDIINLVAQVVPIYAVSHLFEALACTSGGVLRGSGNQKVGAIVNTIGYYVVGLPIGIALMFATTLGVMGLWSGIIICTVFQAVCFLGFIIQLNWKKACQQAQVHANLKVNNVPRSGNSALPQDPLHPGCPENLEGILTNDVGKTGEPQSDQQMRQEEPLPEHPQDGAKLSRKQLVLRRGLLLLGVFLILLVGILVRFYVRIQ

human PMAT = target: T3, human PMAT (Homo sapiens, UniProt Q7RTT9); experiment: Oxygen consumption rate (OCR) assay, HEK293 cells transfected with PMAT; assay type: cell-based
T3 construct: expressed in transfected cells; host or cells: HEK293
T3 sequence (Q7RTT9 1-530): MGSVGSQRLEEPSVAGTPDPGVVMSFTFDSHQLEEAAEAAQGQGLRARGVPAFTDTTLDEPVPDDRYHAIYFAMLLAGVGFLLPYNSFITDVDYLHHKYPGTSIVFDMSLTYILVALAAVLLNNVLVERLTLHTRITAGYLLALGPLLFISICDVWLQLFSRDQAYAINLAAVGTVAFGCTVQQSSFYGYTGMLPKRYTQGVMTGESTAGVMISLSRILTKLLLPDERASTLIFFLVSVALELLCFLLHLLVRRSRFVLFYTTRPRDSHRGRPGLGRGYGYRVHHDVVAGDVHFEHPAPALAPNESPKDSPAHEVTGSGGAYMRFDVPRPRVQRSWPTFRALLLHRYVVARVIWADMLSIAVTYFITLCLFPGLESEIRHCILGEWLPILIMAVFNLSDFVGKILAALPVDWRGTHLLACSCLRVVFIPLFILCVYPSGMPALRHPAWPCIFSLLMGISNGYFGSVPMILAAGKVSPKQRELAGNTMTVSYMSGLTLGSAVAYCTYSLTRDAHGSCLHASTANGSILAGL
Source text: as §1, §2, §3
HEK293 cells transformed with human organic cation transporters were plated in collagen coated, 96-well black-walled microclear plates (Greiner-Bio 1, #655956) at 60,000 cells per well in growth medium (DMEM (LG), 10% FBS, 400 μg/ml G418). Cells were incubated overnight to allow attachment. The outer columns (1 and 12) are not seeded with cells, as controls. The next day, plating medium was removed and replaced with 150 μL of assay medium (DMEM/F12 (PRF), 5% FBS, antibiotics) containing compound dilutions. A 3-fold serial dilution was prepared in the assay medium and transferred to the empty wells. The outer columns and column 11 received 150 μL of assay medium only. 10 μL of MitoXpress Xtra reagent was added to each test well, and 100 μL of pre-warmed mineral oil was overlayed in each well to create a seal. Dual read time-resolved fluorescence (BMG FluoStar Galaxy reader) was measured over 2 hours with measurements taken every 2 minutes. Excitation is 340 nm, Emission is 650 nm. For lifetime analysis, two measurements per well were taken: 1) delay of 30 μs, with a window of 30 μs; and 2) delay of 70 μs with a window of 30 μs. Background TRF values from A1-D1 were subtracted from all readings. A ratiometric analysis was performed to determine changes in the Lifetime fluorescence signal:Lifetime (μs) [T]=(D2−D1)/ln(W1/W2), where D is delay; W is fluorescence window value at each time point. Lifetime slopes were calculated using each Lifetime measurement over time. IC50 values were determined by plotting lifetime slope values vs. compound concentration.

[1] = T2D patients treated with metformin, retrospective studies; cited from earlier work
[2] = diabetic cancer patients taking metformin during neoadjuvant chemotherapy; versus 8% not receiving metformin, P=0.007; cited from earlier work
[3] = diabetic patients receiving metformin; cited from earlier work
[4] = NASH, dose up to 1 g twice daily (BID); cited from earlier work

Compound | Oxygen Consumption Rate (OCR) IC50, OCT 2 (human OCT2) [µM] | pIC50 (control (Neo) cells; HEK293, 2 h) | pIC50 (human MATE1) | pIC50 (human PMAT) | pIC50 (control (Neo) cells; control (Neo) HEK293 cells, MitoXpress Xtra, 2 hours) | pIC50 (human PMAT; HEK293 cells stably transfected with human PMAT, MitoXpress Xtra, 2 hours, read-out: Oxygen Consumption Rate (OCR) IC50, PMAT) | reduced cancer burden than patients on other treatments [1] [%] | pathological complete response rate [2] [%] | decrease in breast cancer compared with those on other therapies [3] [%] | patients with improvement in liver pathology and ALT [4] [%]
N=C(N)NC(=N)NCCc1c[nH]c2c(F)cccc12 [Ex 3, 1-[2-(7-fluoro-1H-indol-3-yl)ethyl]imidodicarbonimide diamide] | 7 | 3.17 | 4.70 | 5.40 | – | – | – | – | – | –
N=C(N)NC(=N)NCCc1c[nH]c2cc(F)ccc12 [Ex 11, 1-[2-(6-fluoro-1H-indol-3-yl)ethyl]imidodicarbonimide Diamide Trifluoroacetic Acid Salt] | 12 | 3.67 | 4.24 | 5.52 | – | – | – | – | – | –
N=C(N)NC(=N)NCCc1c[nH]c2cccc(F)c12 [Ex 26, 1-[2-(4-fluoro-1H-indol-3-yl)ethyl]imidodicarbonimide diamide, trifluoroacetic acid salt] | 2 | 4.05 | – | 5.70 | – | – | – | – | – | –
CN(C)C(=N)NC(=N)N [Metformin] | – | – | – | – | < 2.52 | 3.54 | ~40 | 24 | 56 | 30
